These results are taken from patent publication US11414384B2, “P300/CBP hat inhibitors” (Constellation Pharmaceuticals, Inc., priority 2018, dated 2022).

For orientation: IC50 means the midpoint of a concentration-inhibition curve.

Molecules are shown by their SMILES.

This experiment addresses p300 HAT domain (residues 1287-1666) (Homo sapiens (Human), UniProt Q09472). Description: p300 HAT SPA assay (scintillation proximity assay, acetylation of biotinylated H3(1-21) peptide). The experiment is classed as biochemical. As to conditions: p300 HAT domain; average of at least 2 replicate titrations; read-out: P300 HAT SPA IC50. Summed up: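 Purified p300 HAT domain reaction transferred to streptavidin plates to capture biotinylated H3(1-21) peptide, incubated 1.5 hr at RT, and read by scintillation proximity. IC50 values derived from concentration-response data.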

Sequence of p300 HAT domain (residues 1287-1666) (Q09472 1287-1666): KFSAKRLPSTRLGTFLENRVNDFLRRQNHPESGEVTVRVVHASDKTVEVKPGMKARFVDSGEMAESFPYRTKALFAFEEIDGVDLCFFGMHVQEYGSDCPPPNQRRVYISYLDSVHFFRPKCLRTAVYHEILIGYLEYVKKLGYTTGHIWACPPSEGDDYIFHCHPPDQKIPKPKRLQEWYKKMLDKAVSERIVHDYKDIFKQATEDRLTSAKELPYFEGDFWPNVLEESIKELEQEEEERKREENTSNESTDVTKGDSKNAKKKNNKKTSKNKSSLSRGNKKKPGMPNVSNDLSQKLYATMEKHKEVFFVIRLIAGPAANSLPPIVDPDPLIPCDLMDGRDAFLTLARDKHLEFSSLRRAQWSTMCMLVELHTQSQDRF

For the molecule `NS(=O)(=O)c1ccc(CCNC(C(=O)c2c[nH]c3c(Cl)cccc23)c2ccccc2)cc1` (single isomer, unassigned) [15 Isomer 1], the IC50 is over 60000 nM.

As for `CC(CNC(C(=O)c1c[nH]c2cc(-c3cnn(C)c3)ccc12)c1ccccc1)c1ccc(Cl)cc1` (single isomer, unassigned) [91 Isomer 3], the IC50 stood at 6440 nM.

For `O=C(c1c[nH]c2cc(-c3cccnn3)ccc12)C(NCCc1ccc(Cl)cc1)c1ccccc1` (single isomer, unassigned) [112 Isomer 1], the IC50 was determined as 2030 nM.

Consider `O=C(c1c[nH]c2ccccc12)[C@@H](NCCc1ccc(-c2nn[nH]n2)cc1)c1ccccc1` (single isomer, unassigned) [185 Isomer 1], for which the concentration for half-maximal inhibition (IC50) was 1100 nM.

`CN(C)C(=O)CCc1ccc2c(C(=O)C(NCCc3ccc(F)cc3)c3ccccc3)c[nH]c2c1` (single isomer, unassigned) [49 Isomer 1]: the IC50 is over 30000 nM.

For the molecule `O=C(c1c[nH]c2cc(-c3ccncn3)ccc12)C(NCCc1ccc(Cl)cc1)c1ccccc1` (single isomer, unassigned) [111 Isomer 1], the IC50 came to 1150 nM.

Take `CNC(=O)c1ccc2c(C(=O)C(NCCc3ccc(C#N)cc3)c3ccccc3)c[nH]c2n1` (single isomer, unassigned) [67 Isomer 2]: the IC50 is over 5000 nM.

Take `CNC(=O)Cn1cc(-c2ccc3c(C(=O)C(NCCc4ccc(Cl)cc4)c4ccccc4)c[nH]c3c2)cn1` (single isomer, unassigned) [87 Isomer 1]: the IC50 stood at 1390 nM.

Regarding `O=C(c1c[nH]c2ccccc12)C(NCCn1cnc2ccccc21)c1ccccc1` (single isomer, unassigned) [37 Isomer 1], the IC50 was over 60000 nM.

In the case of `CCNC(=O)c1ccc2c(C(=O)C(NCC(C)c3ccc(C#N)cc3)c3ccccc3)cnn2c1` (single isomer, unassigned) [69 Isomer 1], the IC50 worked out at 188 nM.

For `CC(Cc1ccc(C(N)=O)cc1)NC(C(=O)c1c[nH]c2ccccc12)c1ccccc1` (single isomer, unassigned) [140 Isomer 4], the IC50 is over 5000 nM.

As to `COc1ccc(CCNC(C(=O)c2c[nH]c3c(Cl)cccc23)c2ccccc2)cc1` (single isomer, unassigned) [28 Isomer 1], the IC50 was found to be 7580 nM.

As for `NS(=O)(=O)c1ccc(CCNC(C(=O)c2c[nH]c3cc(-n4ccnc4)ccc23)c2ccccc2)cc1` (single isomer, unassigned) [119 Isomer 1], the IC50 was over 5000 nM.

As to `CN1CCC(c2ccc3c(C(=O)C(NCCc4ccc(C#N)cc4)c4ccccc4)c[nH]c3c2)CC1` (single isomer, unassigned) [64 Isomer 2], the IC50 is 80 nM.

With `Cn1cc(-c2ccc3c(C(=O)C(NCCc4ccc(C(N)=O)cc4Cl)c4ccccc4)c[nH]c3c2)cn1` (racemic) [143 racemic, 3-chloro-4-(2-((2-(6-(1-methyl-1H-pyrazol-4-yl)-1H-indol-3-yl)-2-oxo-1-phenylethyl)amino)ethyl)benzamide], the IC50 was determined as 266 nM.

As to `COc1ccc(CCNC(C(=O)c2c[nH]c3c(Cl)cccc23)c2ccccc2)cc1` (single isomer, unassigned) [28 Isomer 2], the IC50 worked out at 1370 nM.

On to `Cc1nnc(-c2ccc3c(C(=O)C(NCCc4ccc(Cl)cc4)c4ccccc4)c[nH]c3c2)o1` (single isomer, unassigned) [107 Isomer 2], for which the IC50 stood at 3280 nM.

`CC(CNC(C(=O)c1cnn2cc(C(=O)NC[C@@H](C)O)ccc12)c1ccccc1)c1ccc(C#N)cc1` (single isomer, unassigned) [70 Isomer 2]: the IC50 is 64.3 nM.

Regarding `CC(Cc1ccc(C(N)=O)cc1)NC(C(=O)c1c[nH]c2ccccc12)c1ccccc1` (single isomer, unassigned) [140 Isomer 2], the IC50 is 1540 nM.

As for `C[C@@H](O)CNC(=O)c1ccc2c(C(=O)C(NCCc3ccc(C#N)cc3)c3ccccc3)c[nH]c2c1` (single isomer, unassigned) [173 Isomer 1], the IC50 was found to be 1700 nM.

`CC(C)NC(=O)c1ccc2c(C(=O)C(NCCc3ccc(C#N)cc3)c3ccccc3)c[nH]c2c1` (single isomer, unassigned) [167 Isomer 1]: the IC50 turned out to be 23.2 nM.

With `O=C(c1c[nH]c2cc(N3CCCC3=O)ccc12)C(NCCc1ccc(Cl)cc1)c1ccccc1` (single isomer, unassigned) [74 Isomer 2], the IC50 is 160 nM.

For `COc1cccc2c(C(=O)[C@@H](NCCc3ccc(S(N)(=O)=O)cc3)c3ccccc3)c[nH]c12` (single isomer, unassigned) [144 Isomer 1], the IC50 came out at 9950 nM.

Turning to `Cc1[nH]c2ccccc2c1C(=O)C(NCCc1ccc(S(N)(=O)=O)cc1)c1ccccc1` (single isomer, unassigned) [16 Isomer 1], the IC50 is 49200 nM.

Turning to `COc1ccc(CCNC(C(=O)c2c[nH]c3ccccc23)c2ccccc2)cc1` (single isomer, unassigned) [8 Isomer 1], the half-maximal inhibitory concentration (IC50) was 43200 nM.

With `Cc1nnc(-c2ccc3c(C(=O)C(NCCc4ccc(Cl)cc4)c4ccccc4)c[nH]c3c2)o1` (single isomer, unassigned) [107 Isomer 1], the IC50 came to 1900 nM.

Consider `O=C(c1c[nH]c2ccccc12)C(NCCc1ccc(Cl)cc1)C1CC1` (single isomer, unassigned) [24 Isomer 1], for which the IC50 came to 52200 nM.

On to `COCCNc1ccc(CCNC(C(=O)c2c[nH]c3ccccc23)c2ccccc2)cn1` (single isomer, unassigned) [54 Isomer 2], for which the IC50 is 15700 nM.

For the molecule `C[C@H](O)CNC(=O)c1ccc2c(C(=O)C(NCCc3ccc(C#N)cc3)c3ccccc3)c[nH]c2c1` (single isomer, unassigned) [168 Isomer 1], the IC50 amounted to 4120 nM.

For the molecule `CCNC(=O)c1ccc2c(C(=O)C(NCCc3ccc(C#N)cc3Cl)c3ccccc3)c[nH]c2c1` (single isomer, unassigned) [71 Isomer 2], the IC50 worked out at 17.7 nM.

As for `Cn1cnc(-c2ccc3c(C(=O)C(NCCc4ccc(C#N)cc4)c4ccccc4)c[nH]c3c2)c1` (single isomer, unassigned) [113 Isomer 1], the half-inhibitory concentration (IC50) worked out at 1110 nM.

For the molecule `Cc1nc(C(=O)C(NCCc2ccc(C(N)=O)cc2)c2ccccc2)c2ccc(-c3cnn(C)c3)cn12` (single isomer, unassigned) [184 Isomer 2], the IC50 is 522 nM.

Take `Cn1cc(C(=O)C(NCCc2ccc(S(N)(=O)=O)cc2)c2ccccc2)c2ccccc21` (single isomer, unassigned) [17 Isomer 1]: the IC50 worked out at 7990 nM.

For the molecule `C[C@H](O)CNC(=O)c1ccc2c(C(=O)C(NCCc3ccc(C#N)cc3)c3ccccc3)c[nH]c2c1` (single isomer, unassigned) [168 Isomer 2], the 50% inhibitory concentration (IC50) is 53.1 nM.

On to `Cn1cnc(-c2ccc3c(C(=O)C(NCCc4ccc(S(N)(=O)=O)cc4)c4ccccc4)c[nH]c3c2)c1` (single isomer, unassigned) [115 Isomer 1], for which the IC50 was found to be 1490 nM.

As for `O=C(c1c[nH]c2ccccc12)C(NCCN1CCOCC1)c1ccccc1` (single isomer, unassigned) [18 Isomer 1], the IC50 was over 60000 nM.

In the case of `COCCNc1ccc(CCNC(C(=O)c2c[nH]c3ccccc23)c2ccccc2)cn1` (single isomer, unassigned) [54 Isomer 1], the IC50 was over 30000 nM.

As for `CN1CCN(c2ccc3c(C(=O)C(NCCc4ccc(C#N)cc4)c4ccccc4)c[nH]c3c2)CC1` (single isomer, unassigned) [122 Isomer 1], the IC50 worked out at 325 nM.

Take `Cc1ccc(CCNC(C(=O)c2c[nH]c3ccccc23)c2ccccc2)cc1` (single isomer, unassigned) [38 Isomer 1]: the half-inhibitory concentration (IC50) stood at 19000 nM.

On to `COc1ccc(CCN[C@H](C(=O)c2c[nH]c3c(C(C)C)cccc23)c2ccccc2)cc1` (single isomer, unassigned) [145 Isomer 2], for which the IC50 was over 60000 nM.

As for `CCNc1ccc(CCNC(C(=O)c2c[nH]c3ccccc23)c2ccccc2)cn1` (single isomer, unassigned) [53 Isomer 1], the IC50 was over 30000 nM.

For `O=C(c1c[nH]c2ccccc12)C(NCCn1ccnc1)c1ccccc1` (single isomer, unassigned) [36 Isomer 2], the IC50 is over 60000 nM.

`Cn1cc(-c2ccc3c(C(=O)C(NCCc4ccc(Cl)cc4)c4ccccc4)c[nH]c3c2)nn1` (single isomer, unassigned) [104 Isomer 1]: the half-inhibitory concentration (IC50) was over 5000 nM.

Take `CN1CCC(c2ccc3c(C(=O)C(NCCc4ccc(C(N)=O)cc4)c4ccccc4)c[nH]c3c2)CC1` (single isomer, unassigned) [178 Isomer 2]: the IC50 is 2070 nM.

For the molecule `Cc1ccc(-c2ccc3c(C(=O)C(NCCc4ccc(Cl)cc4)c4ccccc4)c[nH]c3c2)cn1` (single isomer, unassigned) [88 Isomer 1], the concentration for half-maximal inhibition (IC50) is over 30000 nM.

Turning to `O=C(c1c[nH]c2cc(-c3ccccn3)ccc12)C(NCCc1ccc(F)cc1)c1ccccc1` (single isomer, unassigned) [105 Isomer 1], the IC50 was over 30000 nM.

Regarding `O=C(c1c[nH]c2ccccc12)C(NCCc1cccc(Cl)c1)c1ccccc1` (single isomer, unassigned) [4 Isomer 2], the IC50 was found to be 4400 nM.

Turning to `CCNC(=O)c1ccc2c(C(=O)C(NCC(C)c3ccc(C#N)cc3)c3ccccc3)cnn2c1` (single isomer, unassigned) [69 Isomer 2], the IC50 came out at 2870 nM.

For the molecule `Cn1cnc(-c2ccc3c(C(=O)C(NCCc4ccc(Cl)cc4)c4ccccc4)c[nH]c3c2)c1` (single isomer, unassigned) [106 Isomer 1], the IC50 was determined as 755 nM.

`CC(CNC(C(=O)c1c[nH]c2cc(-c3cnn(C)c3)ccc12)c1ccccc1)c1ccc(Cl)cc1` (single isomer, unassigned) [91 Isomer 2]: the IC50 is over 30000 nM.

`N#Cc1ccc(CCNC(C(=O)c2c[nH]c3cc(C(=O)NC4CN(CC(F)(F)F)C4)ccc23)c2ccccc2)cc1` (single isomer, unassigned) [162 Isomer 1]: the IC50 was determined as 4860 nM.

In the case of `NC(=O)c1ccc(CCNC(C(=O)c2c[nH]c3cc(-n4ccnc4)ccc23)c2ccccc2)cc1` (single isomer, unassigned) [181 Isomer 2], the IC50 was over 5000 nM.
